Assay results taken from patent EP2951180B1, “2,6,7,8 SUBSTITUTED PURINES AS HDM2 INHIBITORS” (Merck Sharp & Dohme Corp., priority 2013, dated 2014).

molecular target: T1, HDM2 (Homo sapiens, UniProt Q00987); assay: HDM2 FRET assay (inhibition of binding of FITC labeled p53-pocket peptide to HDM2); conditions: FRET IC50
T1 construct: Thioredoxin (N); made in house; host or cells: E. coli strain BL21(DE3)Rosetta
Summary of the method: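 Displacement of FITC-p53 peptide (3 nM) from His-tagged HDM2 (0.5 nM) is measured by Tb-to-fluorescein FRET in PBS, 0.01% BSA, 0.01% Tween-20. IC50 values derive from 10-point curves.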

T1 sequence (Q00987 17-125): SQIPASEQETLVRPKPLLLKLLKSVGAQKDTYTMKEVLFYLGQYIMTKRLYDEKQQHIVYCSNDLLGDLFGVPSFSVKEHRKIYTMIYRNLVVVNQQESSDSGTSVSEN

| SMILES | IC50 |
| --- | --- |
| C[C@@H](Nc1nc(C(=O)O)nc2nc(N3C4CCC3COC4)n(Cc3ccc(C(F)(F)F)cc3)c12)C1CCC1 [Example 9.76, 6-{[(1R)-1-cyclobutylethyl]amino}-8-(3-oxa-8-azabicyclo[3.2.1]oct-8-yl)-7-[4-(trifluoromethyl)benzyl]-7H-purine-2-carboxylic acid] | 15.9 nM |

same assay, conditions: Table 9; read-out: FRET IC50

| SMILES | IC50 |
| --- | --- |
| CCC(c1ccccc1)N(C)c1nc2nc(-c3noc(=O)[nH]3)nc(N[C@H](C)C3CCC3)c2n1Cc1ccc(C(F)(F)F)c(F)c1 (stereo partly drawn) [Example 9.71, 3-(6-{[(1R)-1-cyclobutylethyl]amino}-7-[3-fluoro-4-(trifluoromethyl)benzyl]-8-[methyl(1-phenylpropyl)amino]-7H-purin-2-yl)-1,2,4-oxadiazol-5(4H)-one] | 18.1 nM |
| CC(c1ccccn1)N(C)c1nc2nc(-c3noc(=O)[nH]3)nc(N[C@H](C)C3CCC3)c2n1Cc1ccc(C(F)(F)F)c(F)c1 (stereo partly drawn) [Example 9.72, 3-(6-{[(1R)-1-cyclobutylethyl]amino}-7-[3-fluoro-4-(trifluoromethyl)benzyl]-8-[methyl(1-pyridin-2-ylethyl)amino]-7H-purin-2-yl)-1,2,4-oxadiazol-5(4H)-one] | 4.64 nM |
| CC(c1cccc(F)c1)N(C)c1nc2nc(-c3noc(=O)[nH]3)nc(N[C@H](C)C3CCC3)c2n1Cc1ccc(C(F)(F)F)c(F)c1 (stereo partly drawn) [Example 9.73, 3-(6-{[(1R)-1-cyclobutylethyl]amino}-8-{[1-(3-fluorophenyl)ethyl](methyl)amino}-7-[3-fluoro-4-(trifluoromethyl)benzyl]-7H-purin-2-yl)-1,2,4-oxadiazol-5(4H)-one] | 16.2 nM |
| C[C@@H](Nc1nc(C(=O)O)nc2nc(N3CCCC34CCc3ccccc34)n(Cc3ccc(C(F)(F)F)cc3)c12)C1CCC1 (stereo partly drawn) [Example 9.74, 6-{[(1R)-1-cyclobutylethyl]amino}-8-(2,3-dihydro-1'H-spiro[indene-1,2'-pyrrolidin]-1'-yl)-7-[4-(trifluoromethyl)benzyl]-7H-purine-2-carboxylic acid] | 12.9 nM |
| CC(Nc1nc2nc(-c3noc(=O)[nH]3)nc(N[C@H](C)C3CCC3)c2n1Cc1ccc(C(F)(F)F)cc1)c1ccccn1 (stereo partly drawn) [Example 9.75, 3-(6-{[(1R)-1-cyclobutylethyl]amino}-8-[(1-pyridin-2-ylethyl)amino]-7-[4-(trifluoromethyl)benzyl]-7H-purin-2-yl)-1,2,4-oxadiazol-5(4H)-one] | 8.12 nM |
| CC(C)CN(C)c1nc2nc(-c3noc(=O)[nH]3)nc(N[C@H](C)C3CCC3)c2n1Cc1ccc(C(F)(F)F)cc1 [Example 9.81, 3-(6-{[(1R)-1-cyclobutylethyl]amino}-8-[methyl(2-methylpropyl)amino]-7-[4-(trifluoromethyl)benzyl]-7H-purin-2-yl)-1,2,4-oxadiazol-5(4H)-one] | 11.6 nM |
| C[C@@H](Nc1nc(-c2noc(=O)[nH]2)nc2nc(N(C)C3CCCC3)n(Cc3ccc(C(F)(F)F)cc3)c12)C1CCC1 [Example 9.82, 3-(6-{[(1R)-1-cyclobutylethyl]amino}-8-[cyclopentyl(methyl)amino]-7-[4-(trifluoromethyl)benzyl]-7H-purin-2-yl)-1,2,4-oxadiazol-5(4H)-one] | 13.7 nM |
| C[C@@H](Nc1nc(-c2noc(=O)[nH]2)nc2nc(N3CCCC3(C)C)n(Cc3ccc(C(F)(F)F)cc3)c12)C1CCC1 [Example 9.83, 3-(6-{[(1R)-1-cyclobutylethyl]amino}-8-(2,2-dimethylpyrrolidin-1-yl)-7-[4-(trifluoromethyl)benzyl]-7H-purin-2-yl)-1,2,4-oxadiazol-5(4H)-one] | 25.6 nM |
| C[C@@H](Nc1nc(-c2noc(=O)[nH]2)nc2nc(N(C)CC(C)(C)C)n(Cc3ccc(C(F)(F)F)cc3)c12)C1CCC1 [Example 9.84, 3-(6-{[(1R)-1-cyclobutylethyl]amino}-8-[(2,2-dimethylpropyl)(methyl)amino]-7-[4-(trifluoromethyl)benzyl]-7H-purin-2-yl)-1,2,4-oxadiazol-5(4H)-one] | 13.3 nM |
| C[C@@H](Nc1nc(-c2noc(=O)[nH]2)nc2nc(N3CCCCC34CC4)n(Cc3ccc(C(F)(F)F)cc3)c12)C1CCC1 [Example 9.85, 3-{8-(4-azaspiro[2.5]oct-4-yl)-6-{[(1R)-1-cyclobutylethyl]amino}-7-[4-(trifluoromethyl)benzyl]-7H-purin-2-yl}-1,2,4-oxadiazol-5(4H)-one] | 9.84 nM |
| CC(C)C1CCCN1c1nc2nc(-c3noc(=O)[nH]3)nc(N[C@H](C)C3CCC3)c2n1Cc1ccc(C(F)(F)F)cc1 (stereo partly drawn) [Example 9.86, 3-(6-{[(1R)-1-cyclobutylethyl]amino}-8-[2-(1-methylethyl)pyrrolidin-1-yl]-7-[4-(trifluoromethyl)benzyl]-7H-purin-2-yl)-1,2,4-oxadiazol-5(4H)-one] | 10.2 nM |
| C[C@@H](Nc1nc(-c2noc(=O)[nH]2)nc2nc(N(C)C3CCCCC3)n(Cc3ccc(C(F)(F)F)cc3)c12)C1CCC1 [Example 9.87, 3-(6-{[(1R)-1-cyclobutylethyl]amino}-8-[cyclohexyl(methyl)amino]-7-[4-(trifluoromethyl)benzyl]-7H-purin-2-yl)-1,2,4-oxadiazol-5(4H)-one] | 23.4 nM |
| C[C@@H](Nc1nc(-c2noc(=O)[nH]2)nc2nc(N3CCOCC3(C)C)n(Cc3ccc(C(F)(F)F)cc3)c12)C1CCC1 [Example 9.88, 3-(6-{[(1R)-1-cyclobutylethyl]amino}-8-(3,3-dimethylmorpholin-4-yl)-7-[4-(trifluoromethyl)benzyl]-7H-purin-2-yl)-1,2,4-oxadiazol-5(4H)-one] | 12.2 nM |
| COCC1(N(C)c2nc3nc(-c4noc(=O)[nH]4)nc(N[C@H](C)C4CCC4)c3n2Cc2ccc(C(F)(F)F)cc2)CC1 [Example 9.89, 3-(6-{[(1R)-1-cyclobutylethyl]amino}-8-{[1-(methoxymethyl)cyclopropyl] (methyl)amino}-7-[4-(trifluoromethyl)benzyl]-7H-purin-2-yl)-1,2,4-oxadiazol-5(4H)-one] | 22.6 nM |
| C[C@@H](Nc1nc(-c2noc(=O)[nH]2)nc2nc(N3CCCCC3CF)n(Cc3ccc(C(F)(F)F)cc3)c12)C1CCC1 (stereo partly drawn) [Example 9.90, 3-(6-{[(1R)-1-cyclobutylethyl]amino}-8-[2-(fluoromethyl)piperidin-1-yl]-7-[4-(trifluoromethyl)benzyl]-7H-purin-2-yl)-1,2,4-oxadiazol-5(4H)-one] | 12.1 nM |
| CC(C)CC1CCCN1c1nc2nc(-c3noc(=O)[nH]3)nc(N[C@H](C)C3CCC3)c2n1Cc1ccc(C(F)(F)F)cc1 (stereo partly drawn) [Example 9.91, 3-(6-{[(1R)-1-cyclobutylethyl]amino}-8-[2-(2-methylpropyl)pyrrolidin-1-yl]-7-[4-(trifluoromethyl)benzyl]-7H-purin-2-yl)-1,2,4-oxadiazol-5(4H)-one] | 19.4 nM |
| CC(C)CC1CCN(c2nc3nc(-c4noc(=O)[nH]4)nc(N[C@H](C)C4CCC4)c3n2Cc2ccc(C(F)(F)F)cc2)C1 (stereo partly drawn) [Example 9.92, 3-(6-{[(1R)-1-cyclobutylethyl]amino}-8-[3-(2-methylpropyl)pyrrolidin-1-yl]-7-[4-(trifluoromethyl)benzyl]-7H-purin-2-yl)-1,2,4-oxadiazol-5(4H)-one] | 478 nM |
| C[C@@H](Nc1nc(-c2noc(=O)[nH]2)nc2nc(N(C)CC3CCOCC3)n(Cc3ccc(C(F)(F)F)cc3)c12)C1CCC1 [Example 9.93, 3-(6-{[(1R)-1-cyclobutylethyl]amino}-8-[methyl(tetrahydro-2H-pyran-4-ylmethyl)amino]-7-[4-(trifluoromethyl)benzyl]-7H-purin-2-yl)-1,2,4-oxadiazol-5(4H)-one] | 47 nM |
| C[C@@H](Nc1nc(-c2noc(=O)[nH]2)nc2nc(N(C)CCc3ccccc3)n(Cc3ccc(C(F)(F)F)cc3)c12)C1CCC1 [Example 9.94, 3-(6-{[(1R)-1-cyclobutylethyl]amino}-8-[methyl(2-phenylethyl)amino]-7-[4-(trifluoromethyl)benzyl]-7H-purin-2-yl)-1,2,4-oxadiazol-5(4H)-one] | 96.7 nM |
| CCN(CC1CCCCC1)c1nc2nc(-c3noc(=O)[nH]3)nc(N[C@H](C)C3CCC3)c2n1Cc1ccc(C(F)(F)F)cc1 [Example 9.95, 3-(6-{[(1R)-1-cyclobutylethyl]amino}-8-[(cyclohexylmethyl)(ethyl)amino]-7-[4-(trifluoromethyl)benzyl]-7H-purin-2-yl)-1,2,4-oxadiazol-5(4H)-one] | 27.2 nM |
| CCCN(c1nc2nc(-c3noc(=O)[nH]3)nc(N[C@H](C)C3CCC3)c2n1Cc1ccc(C(F)(F)F)cc1)C1CCCCC1 [Example 9.96, 3-(6-{[(1R)-1-cyclobutylethyl]amino}-8-[cyclohexyl(propyl)amino]-7-[4-(trifluoromethyl)benzyl]-7H-purin-2-yl)-1,2,4-oxadiazol-5(4H)-one] | 16.2 nM |
| CCN(CCN1CCCC1)c1nc2nc(-c3noc(=O)[nH]3)nc(N[C@H](C)C3CCC3)c2n1Cc1ccc(C(F)(F)F)cc1 [Example 9.97, 3-(6-{[(1R)-1-cyclobutylethyl]amino}-8-[ethyl(2-pyrrolidin-1-ylethyl)amino]-7-[4-(trifluoromethyl)benzyl]-7H-purin-2-yl)-1,2,4-oxadiazol-5(4H)-one] | 23.9 nM |
| C[C@@H](Nc1nc(-c2noc(=O)[nH]2)nc2nc(N(C)CC3(C)CCN(C)C3)n(Cc3ccc(C(F)(F)F)cc3)c12)C1CCC1 (stereo partly drawn) [Example 9.98, 3-(6-{[(1R)-1-cyclobutylethyl]amino}-8-{[(1,3-dimethylpyrrolidin-3-yl)methyl] (methyl)amino}-7-[4-(trifluoromethyl)benzyl]-7H-purin-2-yl)-1,2,4-oxadiazol-5(4H)-one] | 71 nM |
| C[C@@H](Nc1nc(-c2noc(=O)[nH]2)nc2nc(N(C)CC3CCCN(C)C3)n(Cc3ccc(C(F)(F)F)cc3)c12)C1CCC1 (some centres unmarked) [Example 9.99] | 45 nM |
| C[C@@H](Nc1nc(-c2noc(=O)[nH]2)nc2nc(N(C)CCCN3CCCC3)n(Cc3ccc(C(F)(F)F)cc3)c12)C1CCC1 [Example 9.100, 3-(6-{[(1R)-1-cyclobutylethyl]amino}-8-[methyl(3-pyrrolidin-1-ylpropyl)amino]-7-[4-(trifluoromethyl)benzyl]-7H-purin-2-yl)-1,2,4-oxadiazol-5(4H)-one] | 148 nM |
